What was measured:
U87 cells [1] = assay: Cell cycle analysis (PI/RNase, flow cytometry); assay type: cell-based, human; settings: BCA 125 µM alone or with EU 200 µM, 24 h
Procedure: (§1) Analysis of the effect of BCA and/or EU on the cell cycle was assessed with flow cytometry using propidium iodide (PI)/RNase solution, according to the manufacturer’s protocol (Immunostep, Salamanca, Spain), as previously described. HMC3 and U87 cells (30 × 10^4 cells/well) were seeded in triplicate into 6-well plates and incubated for 24 h at 37 °C and 5% CO2. Thereafter, the cells were treated either with EU (200 µM) or BCA (125 µM) alone or in combination (EU 200 µM + BCA 125 µM). After 24 h, the cells were detached and fixed in 70% ethanol for 60 min at 4 °C, washed twice with PBS, and then stained with 500 µL of PI/RNase solution. The results were acquired using CellQuest software and expressed as the calculated percentage of the cell population in each cell cycle phase (G0/G1, S and G2/M) according to the PI intensity.

HMC3 cells [2] = assay: Cell cycle analysis (PI/RNase, flow cytometry); assay type: cell-based, human; settings: EU 200 µM, BCA 125 µM, alone or in combination, 24 h
Procedure: as §1

U87 cells [3] = assay: Clonogenic cell survival assay; assay type: cell-based, human; settings: EU 200 µM, BCA 125 µM, alone or in combination, 14 days
Procedure: An evaluation of the antiproliferative effect via clonogenic assay on the tumoral U87 cells was performed using an adapted protocol from the previously described procedure. Briefly, U87 cells (0.8 × 10^3 cells/well) were seeded into 6-well plates and incubated for 24 h. After the incubation, based on the results obtained from the cell viability assay and synergistic score, the cells were treated either with EO single compounds diluted in ethanol alone (EU 200 µM and BCA 125 µM) or in combination for 14 days with the media being changed every 2/3 days. The cells without treatment were considered the control condition. Following the incubation, the cells were washed with PBS, fixed with paraformaldehyde (PFA) and stained with 0.1% crystal violet solution. The number of colonies was counted by microscopy, and the surviving fraction (SF) was calculated as the mean colonies/number of cells seeded.

U87 cells [4] = assay: Inflammatory cytokines in conditioned media (Luminex/BioPlex); assay type: cell-based, human; settings: EU 200 µM, BCA 125 µM, alone or in combination, 24 h
Procedure: (§2) In order to determine the impact of BCA and/or EU on inflammatory cytokines levels, cytokine expression analyses (L-6, IL-4, IL-8 and TNF-α) were performed using a customized detection panel purchased from Bio-techne (Minneapolis, MN, USA). The cells were seeded, in triplicate, into 24-well culture plates (8 × 10^4 cells/well). After 24 h, the medium was replaced and the cells were treated either with the vehicle (ethanol) or with different concentrations of EO single compounds alone (EU: 2 µM, 20 µM, 200 µM; and BCA: 1.25 µM, 12.5 µM, 125 µM) or in combination (EU 2 µM + BCA 1.25 µM; EU 20 µM + BCA 12.5 µM; and EU 200 µM + BCA 125 µM). The final concentration of ethanol in the cell medium was kept lower than 0.1%. The ethanol 0.1%-treated cells were considered the control condition. After the 24 h treatment, supernatants were collected and centrifuged at 4,000× g for 10 min, and the samples were analyzed with the BioPlex 200 instrument (BioRad®, Hercules, CA, USA) following the manufacturer’s protocol.

HMC3 cells [5] = assay: as above; assay type: cell-based, human; settings: EU 200 µM, BCA 125 µM, alone or in combination, 24 h
Procedure: as §2

[6] = rat, in vivo, cited from earlier work
U87 cells [7] = assay: Quantitative real-time PCR of mRNA levels; assay type: cell-based, human; settings: 24 h
Procedure: (§3) An analysis of the genes involved in angiogenesis, tumor progression and proliferation were performed. In particular, we analyzed the genes involved in the cell cycle and in three different apoptotic pathways: B-cell lymphoma-2 (BCL2), Bcl-2-like protein 1 (BCL2L1), Bcl-2 Associated X-protein (BAX), BCL2 Antagonist/Killer 1 (BAK-1) and Caspase 9 (CASP9) as the key genes of the intrinsic mitochondrial pathway; and Phosphatase and tensin homolog (PTEN), Tumor protein p53 (TP53), Murine double minute 2 (MDM2), Cyclin-dependent kinase 4 (CDK4) and Vascular endothelial growth factor A (VEGFA) mRNA levels were assessed by quantitative real-time PCR (qRT-PCR). HMC3 and U87 cells were seeded with a density of 1 × 10^6 cells per well and incubated for 24 h at 37 °C and 5% CO2. Thereafter, the cells were treated either with EU (200 μM) or BCA (125 μM) alone and in combination (EU 200 μM + BCA 125 μM). Total RNA was extracted using the TripleXtractor solution (GRISP, Lisbon, Portugal) according to the manufacturer's protocol. RNA was converted into cDNA through the […] Synthesis Supermix (GRISP, Lisbon, Portugal). Each optimized reaction was performed using […] SYBR Green Mastermix 2X with […], Lisbon, Portugal) and subjected to the amplification protocol described by the manufacturer, using a melting temperature of 60 °C. The relative gene expression was determined by the 2^-ΔΔCt method and normalized on Glyceraldehyde-3-Phosphate Dehydrogenase (GAPDH), which was the endogenous reference and relative to the untreated cells (control condition).

HMC3 cells [8] = assay: Quantitative real-time PCR of mRNA levels; assay type: cell-based, human; settings: 24 h
Procedure: as §3

HMC3 cells [9] = assay: Cell death assay (Annexin V/PI, flow cytometry); assay type: cell-based, human; settings: EU 200 µM, BCA 125 µM, alone or in combination, 24 h
Procedure: (§4) HMC3 and U87 cells were seeded in duplicate into 12-well plates (10 × 10^4 cells/well). After 24 h of incubation at 37 °C and 5% CO2, the medium was replaced, and the cells were treated either with EU (200 µM) or BCA (125 µM), alone and in combination (EU 200 µM + BCA 125 µM). Following the 24 h treatment, the cells were co-stained with AV-APC and PI according to the manufacturer’s protocol (Biolegend, San Diego, CA, USA). Briefly, the cells were resuspended in binding buffer (100 µL) and incubated with AV-APC solution (5 µL) and PI solution (2 µL) for 15 min at room temperature. Then, the cells were diluted in a binding buffer (400 µL). A six-parameter, four-color FACSCalibur flow cytometer (Becton Dickinson, San Jose, CA, USA) was used, and at least 10,000 events were collected by acquisition using CellQuest software (Becton Dickinson, San Jose, CA, USA). The results were analyzed with the Paint-a-Gate software and expressed in percentage (%).

U87 cells [10] = assay: Cell death assay (Annexin V/PI, flow cytometry); assay type: cell-based, human; settings: EU 200 µM, BCA 125 µM, alone or in combination, 24 h
Procedure: as §4

[11] = EU 200 µM, BCA 125 µM, alone or in combination

In the case of C=C1CC/C=C(\C)CC[C@@H]2[C@@H]1CC2(C)C [BCA, β-Caryophyllene], the “decrease in percentage of cells in the S phase” value (U87 cells [1]) is reported as −49.4%, the “increase in percentage of cells in the G0/G1 phase” value (U87 cells [1]) is reported as 21.1% and the “effect on cell cycle” value (HMC3 cells [2]) is reported as “no effects”. The “decrease of clonal growth / colony formation with respect to control” value (U87 cells [3]) was −63.8%, the “IL-4 levels, change vs control” value (U87 cells [4]) was −29.3% and the “IL-6 secretion, change vs control” value (U87 cells [4]) was “None of the treatments modulated”. The “IL-8 secretion, change vs control” value (U87 cells [4]) was “unaffected”, the “IL-4 levels, change vs control” value (HMC3 cells [5]) was −52.2% and the “IL-6 secretion, change vs control” value (HMC3 cells [5]) was −55.5%. The “IL-8 secretion, change vs control” value (HMC3 cells [5]) was −38.0%, the “TNF-α secretion, change vs control” value (HMC3 cells [5]) was −49.7% and the “oral acute LD50” value ([6]; po) was “over 5000 mg/kg”. For the same compound, the “No Observed Adverse Effect Level (NOAEL) dose” value [6] was 700 mg/kg, the “PTEN mRNA expression, change vs control” value (U87 cells [7]; EU 200 µM or BCA 125 µM) was “+171.8%” and the “BAK1 mRNA expression, change vs control” value (U87 cells [7]; [11]) was “+129.6%”. The “BAX mRNA expression, change vs control” value (U87 cells [7]; [11]) was “+35.0%”, the “BCL2L1 mRNA expression, change vs control” value (U87 cells [7]; [11]) was −42.2% and the “BCL2 mRNA expression, change vs control” value (U87 cells [7]; [11]) was −54.8%. For the same compound, the “CASP9 mRNA expression, change vs control” value (U87 cells [7]; [11]) was “+98.5%”, the “MDM2 mRNA expression, change vs control” value (U87 cells [7]; [11]) was −49.3% and the “TP53 mRNA expression, change vs control” value (U87 cells [7]; [11]) was “+506.4%”. For the same compound, the “VEGFA mRNA expression, change vs control” value (U87 cells [7]; [11]) was −56.5%, the “CDK4 mRNA levels, change vs control” value (U87 cells [7]; EU 200 µM, BCA 125 µM, alone or in combination, normalized to GAPDH) was “no effects” and the “PTEN mRNA expression, change vs control” value (HMC3 cells [8]; EU 200 µM or BCA 125 µM) was “no effect”. For the same compound, the “BAK1 mRNA expression, change vs control” value (HMC3 cells [8]; [11]) was “+59.8%”, the “BCL2 mRNA expression, change vs control” value (HMC3 cells [8]; [11]) was −56.2% and the “CDK4 mRNA levels, change vs control” value (HMC3 cells [8]; [11]) was “no effects”. For the same compound, the “MDM2 mRNA expression, change vs control” value (HMC3 cells [8]; [11]) was “+34.2%”, the “TP53 mRNA expression, change vs control” value (HMC3 cells [8]; [11]) was “+155.5%” and the “VEGFA mRNA expression, change vs control” value (HMC3 cells [8]; [11]) was −57%. The cell viability (HMC3 cells [9]) was “did not affect” and the “live (viable) cells, change with respect to control” value (U87 cells [10]) was “did not affect”.

Source: PMC11720353, “Clove Essential Oil as a Source of Antitumoral Compounds Capable of Crossing the Blood–Brain Barrier: A Focus on the Effects of β-Caryophyllene and Eugenol in a Glioblastoma Cell Line” (International Journal of Molecular Sciences, 2024)
